From ChEMBL document CHEMBL3045944, “Synthesis and antibacterial evaluation of series of novel tri-substituted-s-triazine derivatives” (Med Chem Res, 2011)
Converted amounts (≈) assume the structure as drawn.

Tests used:
[1] = Solubility of the compound in acetic acid; format: physicochemical
[2] = Solubility of the compound in dilute acids; format: physicochemical
[3] = Solubility of the compound in chloroform; format: physicochemical
[4] = Solubility of the compound in water; format: physicochemical
[5] = Solubility of the compound in DMF; format: physicochemical
[6] = Solubility of the compound in DMSO; format: physicochemical
[7] = Solubility of the compound in ethanol; format: physicochemical
[8] = Solubility of the compound in ethyl acetate; format: physicochemical
[9] = Solubility of the compound in benzene; format: physicochemical
Bacillus subtilis = experiment: Antibacterial activity against Bacillus subtilis NCIM 2063 after 24 hr by broth dilution method; format: functional; conditions: NCIM 2063, 24 h
Staphylococcus aureus = experiment: Antibacterial activity against Staphylococcus aureus NCIM 2079 after 24 hr by broth dilution method; format: functional; conditions: NCIM 2079, 24 h
Bacillus cereus = experiment: Antibacterial activity against Bacillus cereus NCIM 2156 after 24 hr by broth dilution method; format: functional; conditions: NCIM 2156, 24 h
Pseudomonas aeruginosa = experiment: Antibacterial activity against Pseudomonas aeruginosa NCIM 2036 after 24 hr by broth dilution method; format: functional; conditions: NCIM 2036, 24 h
Escherichia coli = experiment: Antibacterial activity against Escherichia coli NCIM 2065 after 24 hr by broth dilution method; format: functional; conditions: NCIM 2065, 24 h
Klebsiella pneumoniae = experiment: Antibacterial activity against Klebsiella pneumoniae NCIM 2706 after 24 hr by broth dilution method; format: functional; conditions: NCIM 2706, 24 h

| SMILES | solubility [1] | solubility [2] | solubility [3] | solubility [4] | solubility [5] | solubility [6] | solubility [7] | solubility [8] | solubility [9] | MIC (Bacillus subtilis) | MIC (Staphylococcus aureus) | MIC (Bacillus cereus) | MIC (Pseudomonas aeruginosa) | MIC (Escherichia coli) | MIC (Klebsiella pneumoniae) |
| --- | --- | --- | --- | --- | --- | --- | --- | --- | --- | --- | --- | --- | --- | --- | --- |
| Nc1nc(-c2ccc([N+](=O)[O-])cc2)cs1 | Insoluble | soluble | soluble | soluble | soluble | soluble | soluble | soluble | soluble |  |  |  |  |  |  |
| Nc1nc(-c2ccc(Cl)cc2)cs1 | Insoluble | soluble | soluble | soluble | soluble | soluble | soluble | soluble | soluble |  |  |  |  |  |  |
| Fc1ccc(Nc2nc(Cl)nc(Nc3ccc(F)c(Cl)c3)n2)cc1Cl | soluble | soluble |  | soluble |  | soluble | soluble |  | soluble | 100 µg/mL (≈ 248 µM) | 50 µg/mL (≈ 124 µM) | 100 µg/mL (≈ 248 µM) | 100 µg/mL (≈ 248 µM) | 100 µg/mL (≈ 248 µM) | 100 µg/mL (≈ 248 µM) |
| O=[N+]([O-])c1ccc(Nc2nc(Cl)nc(Nc3ccc([N+](=O)[O-])cc3)n2)cc1 | soluble | soluble | soluble | soluble | Insoluble | soluble | soluble | soluble | Insoluble | 100 µg/mL (≈ 258 µM) | 50 µg/mL (≈ 129 µM) | 100 µg/mL (≈ 258 µM) | 25 µg/mL (≈ 64.5 µM) | 50 µg/mL (≈ 129 µM) | 100 µg/mL (≈ 258 µM) |
| Clc1nc(Nc2ccc(Br)cc2)nc(Nc2ccc(Br)cc2)n1 | soluble | soluble | Insoluble | Insoluble | Insoluble | soluble | soluble | soluble | soluble | 100 µg/mL (≈ 220 µM) | 100 µg/mL (≈ 220 µM) | 100 µg/mL (≈ 220 µM) | 100 µg/mL (≈ 220 µM) | 100 µg/mL (≈ 220 µM) | 100 µg/mL (≈ 220 µM) |
| Fc1ccc(Nc2nc(Cl)nc(Nc3ccc(F)cc3)n2)cc1 | soluble | Insoluble | Insoluble | soluble | Insoluble | soluble | soluble | Insoluble | soluble | 50 µg/mL (≈ 150 µM) | 100 µg/mL (≈ 300 µM) | 50 µg/mL (≈ 150 µM) | 100 µg/mL (≈ 300 µM) | 50 µg/mL (≈ 150 µM) | 50 µg/mL (≈ 150 µM) |
| Clc1ccc(Nc2nc(Cl)nc(Nc3ccc(Cl)cc3)n2)cc1 | soluble | Insoluble | soluble | Insoluble | Insoluble | soluble | soluble | Insoluble |  | 50 µg/mL (≈ 136 µM) | 50 µg/mL (≈ 136 µM) | 100 µg/mL (≈ 273 µM) | 50 µg/mL (≈ 136 µM) | 25 µg/mL (≈ 68.2 µM) | 25 µg/mL (≈ 68.2 µM) |
| Fc1ccc(Nc2nc(Nc3ccc(F)c(Cl)c3)nc(Nc3nc(-c4ccc(Cl)cc4)cs3)n2)cc1Cl | Insoluble | soluble | soluble | soluble | soluble | soluble | soluble | soluble | soluble | 50 µg/mL (≈ 86.7 µM) | 25 µg/mL (≈ 43.3 µM) | 100 µg/mL (≈ 173 µM) | 25 µg/mL (≈ 43.3 µM) | 12.5 µg/mL (≈ 21.7 µM) | 12.5 µg/mL (≈ 21.7 µM) |
| O=[N+]([O-])c1ccc(-c2csc(Nc3nc(Nc4ccc(F)c(Cl)c4)nc(Nc4ccc(F)c(Cl)c4)n3)n2)cc1 | Insoluble | soluble | soluble | soluble | soluble | soluble | soluble | soluble | soluble | 100 µg/mL (≈ 170 µM) | 50 µg/mL (≈ 85.1 µM) | 25 µg/mL (≈ 42.6 µM) | 3.12 µg/mL (≈ 5.32 µM) | 12.5 µg/mL (≈ 21.3 µM) | 25 µg/mL (≈ 42.6 µM) |
| O=[N+]([O-])c1ccc(Nc2nc(Nc3ccc([N+](=O)[O-])cc3)nc(Nc3nc(-c4ccc([N+](=O)[O-])cc4)cs3)n2)cc1 | Insoluble | soluble | Insoluble | soluble | soluble | soluble | soluble | Insoluble | soluble | 6.25 µg/mL (≈ 10.9 µM) | 3.12 µg/mL (≈ 5.46 µM) | 6.25 µg/mL (≈ 10.9 µM) | 3.12 µg/mL (≈ 5.46 µM) | 6.25 µg/mL (≈ 10.9 µM) | 6.25 µg/mL (≈ 10.9 µM) |
| O=[N+]([O-])c1ccc(-c2csc(Nc3nc(Nc4ccc(Br)cc4)nc(Nc4ccc(Br)cc4)n3)n2)cc1 | soluble | soluble | Insoluble | soluble | soluble | soluble | soluble | soluble | soluble | 100 µg/mL (≈ 156 µM) | 100 µg/mL (≈ 156 µM) | 100 µg/mL (≈ 156 µM) | 50 µg/mL (≈ 78.1 µM) | 100 µg/mL (≈ 156 µM) | 100 µg/mL (≈ 156 µM) |
| O=[N+]([O-])c1ccc(-c2csc(Nc3nc(Nc4ccc(F)cc4)nc(Nc4ccc(F)cc4)n3)n2)cc1 | Insoluble | soluble | soluble | soluble | soluble | soluble | soluble | Insoluble | soluble | 50 µg/mL (≈ 96.4 µM) | 50 µg/mL (≈ 96.4 µM) | 100 µg/mL (≈ 193 µM) | 25 µg/mL (≈ 48.2 µM) | 25 µg/mL (≈ 48.2 µM) | 50 µg/mL (≈ 96.4 µM) |
| O=[N+]([O-])c1ccc(-c2csc(Nc3nc(Nc4ccc(Cl)cc4)nc(Nc4ccc(Cl)cc4)n3)n2)cc1 | Insoluble | soluble | Insoluble | soluble | soluble | soluble | soluble | Insoluble | soluble | 25 µg/mL (≈ 45.3 µM) | 25 µg/mL (≈ 45.3 µM) | 12.5 µg/mL (≈ 22.7 µM) | 6.25 µg/mL (≈ 11.3 µM) | 12.5 µg/mL (≈ 22.7 µM) | 6.25 µg/mL (≈ 11.3 µM) |
| CN[C@@H]1[C@H](O[C@H]2[C@H](O[C@H]3[C@H](O)[C@@H](O)[C@H](N=C(N)N)[C@@H](O)[C@@H]3N=C(N)N)O[C@@H](C)[C@]2(O)C=O)O[C@@H](CO)[C@H](O)[C@H]1O [STREPTOMYCIN] |  |  |  |  |  |  |  |  |  | 6.25 µg/mL (≈ 10.7 µM) | 3.12 µg/mL (≈ 5.37 µM) | 3.12 µg/mL (≈ 5.37 µM) | 3.12 µg/mL (≈ 5.37 µM) | 6.25 µg/mL (≈ 10.7 µM) | 6.25 µg/mL (≈ 10.7 µM) |
